From patent US20180214391A1, “USE OF CURCUMIN AND PHARMACEUTICALLY ACCEPTABLE SALT THEREOF” (TARGETPHARMA LABORATORIES (JIANDSU) CO., LTD., priority 2015, published 2018)

Key:
Type in all cases: in vivo, C57BL/6 female mice
T241-VEGF tumors = experiment: Antitumor animal model, subcutaneous T241-VEGF tumor: tumor volume and tumor weight; settings: for final tumor volume compared with the control group / tumor weight compared with the control group: 0.1 ml/each, 14 days; for tumor weight compared with the control group: FIG. 1-B
From the text: At present, conventional antitumor drugs are accompanied with toxic side effects while taking effect. In this experiment, we evaluated the antitumor effect of curcumin, and examined the toxicity of the drug by observing changes in animals' body weights after treatment. Given that the chemotherapy drug treatment and course of chemotherapy are closely related to the incident rates of antitumor associated syndrome and its severity, positive control in this experiment used the most advanced antitumor antibodies in the world as a control. […]-VEGF is a tumor model with rapid tumor growth and obvious symptom of tumor associated syndrome. We feed C57BL/6 female mice (SPF grade, 6-8 weeks old, manufactured by Shanghai Silaike Experimental Animal Co., Ltd.) for 2-3 days. The day before subcutaneous inoculation, body hair in back and neck was shaved with a shaving device for the preparation of subcutaneous inoculation of tumor cells. The tumor cells […]-VEGF were collected and washed twice with PBS. After resuspended with PBS and counted, the cells were diluted to 1×10^7 cells/ml with PBS and placed on ice ready for inoculation. Mice were anesthetized with 7% chloral hydrate, 0.1 ml/each, intraperitoneal injection. After the mice were completely anesthetized, the mice were subcutaneously inoculated with tumor cells […]-VEGF, 1×10^6/each, with 1 ml medical disposable syringes in the back and neck. Inoculated mice were randomly allocated (8 in each group), weighed, grouped and administered for treatment. In this experiment, curcumin (manufactured by Sigma, cat. no. […]) was dissolved to 1 mol/L with DMSO and diluted to 2.5 mM, 5 mM and 10 mM with 20% Tween-80 (mixed with PBS) before administration. Detailed information and administration plan is as follows: Control: 20% Tween-80, 0.1 ml/each; The low-dose of curcumin group (Curcumin-2.5 mM): 2.5 mM curcumin, 0.1 ml/each, continuous administration for 14 days; The medium-dose of curcumin group (Curcumin-5 mM): 5 mM curcumin, 0.1 ml/each, continuous administration for 14 days; The high-dose of curcumin group (Curcumin-10 mM): 10 mM Curcumin, 0.1 ml/each, continuous administration for 14 days; Positive control group (PC: anti-VEGF humanized monoclonal antibody, produced by Jiangsu […] Pharmaceutical Co., Ltd.): 2 mg/ml, 0.1 ml/each, twice a week, administration for 4 times. Mice were weighed up every other day. Measuring the tumor volume with vernier caliper every other day after tumor grew in the body. In order to further verify the antitumor effect of each dose of curcumin and its effect on liver and spleen, we handled and dissected the animals in each group the day after administration, got tumors, livers, spleens and kidneys, then weighed up all the tissues and stored them respectively.

[1] = Body weight changes of T241-VEGF tumor-bearing mice after treatment (toxicity); settings: low, medium and high dose of curcumin (2.5, 5, 10 mM, 0.1 ml/each, 14 days); consistent with normally fed animals
From the text: At present, conventional antitumor drugs are accompanied with toxic side effects while taking effect. In this experiment, we evaluated the antitumor effect of curcumin, and examined the toxicity of the drug by observing changes in animals' body weights after treatment. Given that the chemotherapy drug treatment and course of chemotherapy are closely related to the incident rates of antitumor associated syndrome and its severity, positive control in this experiment used the most advanced antitumor antibodies in the world as a control. T241-VEGF is a tumor model with rapid tumor growth and obvious symptom of tumor associated syndrome.
We feed C57BL/6 female mice (SPF grade, 6-8 weeks old, manufactured by Shanghai Silaike Experimental Animal Co., Ltd.) for 2-3 days. The day before subcutaneous inoculation, body hair in back and neck was shaved with a shaving device for the preparation of subcutaneous inoculation of tumor cells. The tumor cells T241-VEGF were collected and washed twice with PBS. After resuspended with PBS and counted, the cells were diluted to 1×10^7 cells/ml with PBS and placed on ice ready for inoculation. Mice were anesthetized with 7% chloral hydrate, 0.1 ml/each, intraperitoneal injection. […]

[2] = test system: liver enlargement and splenomegaly caused by T241-VEGF tumor; experiment: Liver and spleen coefficients of T241-VEGF tumor-bearing mice; settings: vs tumor control group, p<0.05
Procedure: We feed C57BL/6 female mice (SPF grade, 6-8 weeks old, manufactured by Shanghai Silaike Experimental Animal Co., Ltd.) for 2-3 days. The day before subcutaneous inoculation, body hair in back and neck was shaved with a shaving device for the preparation of subcutaneous inoculation of tumor cells. The tumor cells T241-VEGF were collected and washed twice with PBS. After resuspended with PBS and counted, the cells were diluted to 1×10^7 cells/ml with PBS and placed on ice ready for inoculation. Mice were anesthetized with 7% chloral hydrate, 0.1 ml/each, intraperitoneal injection. After the mice were completely anesthetized, the mice were subcutaneously inoculated with tumor cells T241-VEGF, 1×10^6/each, with 1 ml medical disposable syringes in the back and neck. Inoculated mice were randomly allocated (8 in each group), weighed, grouped and administered for treatment. In this experiment, curcumin (manufactured by Sigma, cat. no. C1386-10G) was dissolved to 1 mol/L with DMSO and diluted to 2.5 mM, 5 mM and 10 mM with 20% Tween-80 (mixed with PBS) before administration. Detailed information and administration plan is as follows: Control: 20% Tween-80, 0.1 ml/each; The low-dose of curcumin group (Curcumin-2.5 mM): 2.5 mM curcumin, 0.1 ml/each, continuous administration for 14 days; The medium-dose of curcumin group (Curcumin-5 mM): 5 mM curcumin, 0.1 ml/each, continuous administration for 14 days; The high-dose of curcumin group (Curcumin-10 mM): 10 mM Curcumin, 0.1 ml/each, continuous administration for 14 days; Positive control group (PC: anti-VEGF humanized monoclonal antibody, produced by Jiangsu Simcere Pharmaceutical Co., Ltd.): 2 mg/ml, 0.1 ml/each, twice a week, administration for 4 times. Mice were weighed up every other day. Measuring the tumor volume with vernier caliper every other day after tumor grew in the body. […]

[3] = test system: anemia symptoms induced by the T241-VEGF tumor animal model; experiment: Blood analysis of anemia symptoms (RBC, HGB, HCT, PLT) in T241-VEGF tumor-bearing mice
Procedure: We feed C57BL/6 female mice (SPF grade, 6-8 weeks old, manufactured by Shanghai Silaike Experimental Animal Co., Ltd.) for 2-3 days. The day before subcutaneous inoculation, body hair in back and neck was shaved with a shaving device for the preparation of subcutaneous inoculation of tumor cells. The tumor cells T241-VEGF were collected and washed twice with PBS. After resuspended with PBS and counted, the cells were diluted to 1×10^7 cells/ml with PBS and placed on ice ready for inoculation. Mice were anesthetized with 7% chloral hydrate, 0.1 ml/each, intraperitoneal injection. After the mice were completely anesthetized, the mice were subcutaneously inoculated with tumor cells T241-VEGF, 1×10^6/each, with 1 ml medical disposable syringes in the back and neck. Inoculated mice were randomly allocated (8 in each group), weighed, grouped and administered for treatment. In this experiment, curcumin (manufactured by Sigma, cat. no. C1386-10G) was dissolved to 1 mol/L with DMSO and diluted to 2.5 mM, 5 mM and 10 mM with 20% Tween-80 (mixed with PBS) before administration. Detailed information and administration plan is as follows: Control: 20% Tween-80, 0.1 ml/each; The low-dose of curcumin group (Curcumin-2.5 mM): 2.5 mM curcumin, 0.1 ml/each, continuous administration for 14 days; The medium-dose of curcumin group (Curcumin-5 mM): 5 mM curcumin, 0.1 ml/each, continuous administration for 14 days; The high-dose of curcumin group (Curcumin-10 mM): 10 mM Curcumin, 0.1 ml/each, continuous administration for 14 days; Positive control group (PC: anti-VEGF humanized monoclonal antibody, produced by Jiangsu Simcere Pharmaceutical Co., Ltd.): 2 mg/ml, 0.1 ml/each, twice a week, administration for 4 times. Mice were weighed up every other day. Measuring the tumor volume with vernier caliper every other day after tumor grew in the body.
Handled the animals in each group the day after administration, weighed up, then collected blood (stored in 1.5 ml of EP tubes with 20 ul of 0.5M EDTA) after enucleation of the eyeballs and performed blood analysis. Blood samples were taken to evaluate the effect of curcumin on tumor associated syndrome—red blood cell (RBC), hemoglobin (HGB), hematocrit (HCT) and platelet count (PLT) in mice.

[4] = curcumin low, medium and high dose, positive control 2 mg/ml

COc1cc(/C=C/C(=O)CC(=O)/C=C/c2ccc(O)c(OC)c2)ccc1O [curcumin]
final tumor volume compared with the control group (T241-VEGF tumors; 2.5 mM curcumin): inhibited to a certain extent
tumor weight compared with the control group (T241-VEGF tumors; 5 mM curcumin): significantly different
final tumor volume compared with the control group (T241-VEGF tumors; 5 mM curcumin, p<0.01 or p<0.001): significantly different
tumor weight compared with the control group (T241-VEGF tumors; 10 mM curcumin): significantly different
final tumor volume compared with the control group (T241-VEGF tumors; 10 mM curcumin, p<0.01 or p<0.001): significantly different
growth of T241-VEGF tumors (T241-VEGF tumors; low, medium and high dose of curcumin (2.5, 5, 10 mM, 0.1 ml/each, 14 days), FIG. 1-A): can inhibit the growth
body weight [1]: not reduced
liver enlargement (liver coefficient) ([2]; 5 mM curcumin): significantly improve the liver enlargement
liver enlargement (liver coefficient) ([2]; 10 mM curcumin): significantly improve the liver enlargement
spleen enlargement (spleen coefficient) ([2]; 10 mM curcumin): significantly improve the spleen enlargement
platelet (PLT) compared with normal mice ([3]; curcumin at a dose of 10 mM): no statistical differences
anemia symptoms of tumor-bearing mice compared with control group ([3]; curcumin low, medium and high dose (2.5, 5, 10 mM), positive control 2 mg/ml, FIG. 3): improved remarkably
hematocrit (HCT) compared with normal mice [3, 4]: no statistical differences
hemoglobin (HGB) compared with normal mice [3, 4]: no statistical differences
red blood cell (RBC) compared with normal mice [3, 4]: no statistical differences
